{"source": "the supplement of paper PMC10307832", "test_in_all_cases": "relative viability (nuclei count vs DMSO), 5 days (fraction); higher = more cells survive", "key": {"[1]": {"compound": "O=C(/C=C/c1ccccc1)NC(NC(=S)Nc1cccc2cccnc12)C(Cl)(Cl)Cl [Salubrinal] + N=C(N)NC(=N)NCCc1ccccc1 [Phenformin] (partner 250 µM)", "in_short": "(§1)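 Relative viability divides the nuclei count in treated wells by that in vehicle wells. Lung cancer cell lines were seeded in 1536-well plates, dosed by pin tool the next day, and fixed and stained after 5 days in one step with final 0.05% Triton X-100, 1% formaldehyde and 1 ug/ml Hoechst. Dosing was a single drug or a fixed anchor-drug dose plus five library-drug doses (not always all listed) in √10 steps, and values are medians of duplicate plates imaged at 4×.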"}, "[2]": {"compound": "Cc1ccc2nc(NCCN)c3ncc(C)n3c2c1 + CC(=O)c1c(C)c2cnc(Nc3ccc(N4CCNCC4)cn3)nc2n(C2CCCC2)c1=O [Palbociclib] (partner 0.5 µM)", "in_short": "as §1"}, "[3]": {"compound": "O=C(/C=C/c1ccccc1)NC(NC(=S)Nc1cccc2cccnc12)C(Cl)(Cl)Cl [Salubrinal] + O=C(CCCCCCC(=O)Nc1ccccc1)NO [Vorinostat] (partner 1 µM)", "in_short": "as §1"}, "[4]": {"compound": "O=C(/C=C/c1ccccc1)NC(NC(=S)Nc1cccc2cccnc12)C(Cl)(Cl)Cl [Salubrinal] + Nc1ncn([C@H]2C[C@H](O)[C@@H](CO)O2)c(=O)n1 [Decitabine] (partner 2 µM)", "in_short": "as §1"}}}
{"cell line": "UMC-11", "values": [{"measurement": "relative viability", "setting": "[1]; first compound 0.08 µM", "value": 0.354}, {"measurement": "relative viability", "setting": "[1]; first compound 0.253 µM", "value": 0.354}, {"measurement": "relative viability", "setting": "[1]; first compound 0.8 µM", "value": 0.335}, {"measurement": "relative viability", "setting": "[1]; first compound 2.53 µM", "value": 0.332}, {"measurement": "relative viability", "setting": "[1]; first compound 8 µM", "value": 0.299}, {"measurement": "relative viability", "setting": "[2]; first compound 0.04 µM", "value": 0.34}, {"measurement": "relative viability", "setting": "[2]; first compound 0.1265 µM", "value": 0.322}, {"measurement": "relative viability", "setting": "[2]; first compound 0.4 µM", "value": 0.322}, {"measurement": "relative viability", "setting": "[2]; first compound 1.265 µM", "value": 0.317}, {"measurement": "relative viability", "setting": "[2]; first compound 4 µM", "value": 0.341}, {"measurement": "relative viability", "setting": "[3]; first compound 0.08 µM", "value": 0.349}, {"measurement": "relative viability", "setting": "[3]; first compound 0.253 µM", "value": 0.404}, {"measurement": "relative viability", "setting": "[3]; first compound 0.8 µM", "value": 0.38}, {"measurement": "relative viability", "setting": "[3]; first compound 2.53 µM", "value": 0.334}, {"measurement": "relative viability", "setting": "[3]; first compound 8 µM", "value": 0.398}, {"measurement": "relative viability", "setting": "[4]; first compound 0.08 µM", "value": 0.548}, {"measurement": "relative viability", "setting": "[4]; first compound 0.253 µM", "value": 0.608}, {"measurement": "relative viability", "setting": "[4]; first compound 0.8 µM", "value": 0.674}, {"measurement": "relative viability", "setting": "[4]; first compound 2.53 µM", "value": 0.606}, {"measurement": "relative viability", "setting": "[4]; first compound 8 µM", "value": 0.561}]}
